The values that follow come from patent US8785488B2 (Exelixis Patent Company LLC, priority 2009, dated 2014).

As a reminder, the EC50 is the concentration needed to bring the measured effect to its halfway point.

One test deals with T1, h-TGR5 (Homo sapiens, UniProt Q8TDU6).
T1 construct: expressed in transfected cells
T1 sequence (Q8TDU6 1-330): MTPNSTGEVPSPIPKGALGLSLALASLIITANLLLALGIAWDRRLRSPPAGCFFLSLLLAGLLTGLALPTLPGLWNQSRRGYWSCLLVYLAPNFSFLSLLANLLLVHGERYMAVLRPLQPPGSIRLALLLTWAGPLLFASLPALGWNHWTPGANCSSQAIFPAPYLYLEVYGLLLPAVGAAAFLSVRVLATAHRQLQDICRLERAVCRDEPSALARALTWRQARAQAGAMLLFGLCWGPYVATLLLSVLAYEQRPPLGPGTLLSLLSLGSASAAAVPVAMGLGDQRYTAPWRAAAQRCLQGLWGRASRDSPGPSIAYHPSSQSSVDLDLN
The test can be described thus: TGR5 cAMP Assay using Cisbio cAMP Dynamic2 htrf kit (hTGR5CRE-luc HEK 293 cells). In kind it is cell-based. Particulars: h-TGR5 cAMP EC50, Table 1; read-out: cAMP (EC50). As for the experimental part: Compounds were diluted in DPBS with 5% DMSO (8-point serial dilution by half logs) in a 96-well plate and 1 μL was transferred to a 384-well assay plate in quadruplicate. The d2-cAMP and anti-cAMP Ab-cryptate stock solution were prepared as per the instructions in the Cisbio™ (Bedford, Mass.) kit. […] Cells were adjusted to 0.44×10^6 cells/ml followed by addition of IBMX to a final concentration of 0.5 mM. The cells were then mixed with d2-cAMP solution (7.1 mL cells+100 ul d2-cAMP) and 4000 cells (9 μL) were transferred to each well of the 384-well assay plate. Cells without d2-cAMP were added to eight wells as a negative control. The plate was covered and incubated at room temp for 30 min. Then 10 μL of Ab-cryptate solution was added to each well of the assay plate and incubated for 1 hr. The plate was read on an EnVision™ plate reader (Perkin-Elmer, Waltham, Mass.) and the DeltaF value was calculated as per the instructions in the Cisbio™ kit.
In the following tables, EC50 values determined according to the TGR5 cAMP Assay described herein (cAMP); EC50 values determined according to the TGR5/CRE-Luciferiase Assay described herein (CRE-Luc). […] The following compounds in Tables 1 and 2 were made by using procedures described in the above Schemes and Examples, and, where applicable, by making any necessary substitutions of known materials that one skilled in the art would ordinarily understand how to do.

For another test, the target named is T2, human TGR5 (h-TGR5) (Homo sapiens, UniProt Q8TDU6).
T2 construct: expressed in transfected cells
T2 sequence (Q8TDU6 1-330): T1 sequence (Q8TDU6 1-330)
Briefly: TGR5/CRE-Luciferiase Assay (HEK 293 hTGR5/CRE-Luc cells). In kind it is cell-based. Particulars: h-TGR5 CRE-Luc EC50, Table 1; read-out: CRE-Luc (EC50). The essentials:
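HEK293 cells stably carrying hTGR5 and a CRE-luciferase reporter were exposed to serially diluted compounds (diluted in DMEM with 5% DMSO) for 6 h. Cells were then lysed in luciferase buffer, luminescence was read, and EC50 values were derived from dose-response curves.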

Turning to `CC(C)(c1ccc(S(C)(=O)=O)cc1)c1cnc(SCc2c(F)cc(C(=O)O)cc2F)n1-c1ccc(F)cn1` [3,5-difluoro-4-({[1-(5-fluoropyridin-2-yl)-5-{1-methyl-1-[4-(methylsulfonyl)phenyl]ethyl}-1H-imidazol-2-yl]thio}methyl)benzoic acid], on h-TGR5, the EC50 lay in the range of 1 to 10 µM.

As to `CNS(=O)(=O)c1ccc(C(C)(C)c2cnc(SCc3ccc(S(=O)(=O)NC(=O)NN4CCCC4)cc3Cl)n2-c2ccc(F)cc2)cc1OC` [4-{1-[2-({[2-chloro-4-({[(pyrrolidin-1-ylamino)carbonyl]amino}sulfonyl)phenyl]methyl}thio)-1-(4-fluorophenyl)-1H-imidazol-5-yl]-1-methylethyl}-N-methyl-2-(methyloxy)benzenesulfonamide], the EC50 at h-TGR5 lay in the range of 0.1 to 1 µM.

In the case of `COc1cc(C(C)(C)c2cnc(SCc3ccc(S(=O)(=O)NC(=O)NCC(=O)O)cc3Cl)n2-c2ccc(F)cc2)ccc1Cl` [N-[({[3-chloro-4-({[5-{1-[4-chloro-3-(methyloxy)phenyl]-1-methylethyl}-1-(4-fluorophenyl)-1H-imidazol-2-yl]thio}methyl)phenyl]sulfonyl}amino)carbonyl]glycine], the EC50 on h-TGR5 lay in the range of 0.1 to 1 µM.

With `CC(C)(c1ccc(S(C)(=O)=O)cc1)c1cnc(SCc2ccc(Cl)c(-c3nnn[nH]3)c2)n1-c1ccc(F)cc1` [5-[2-chloro-5-({[1-(4-fluorophenyl)-5-{1-methyl-1-[4-(methylsulfonyl)phenyl]ethyl}-1H-imidazol-2-yl]thio}methyl)phenyl]-1H-tetrazole], at h-TGR5, the EC50 was in the range of 1 to 10 µM.

As for `CC(C)(c1ccc(Cl)cc1)c1cnc(SCc2ccc(S(=O)(=O)NC(=O)NN3CCCC3)cc2Cl)n1-c1ccc(F)cc1F` [3-chloro-4-[({5-[1-(4-chlorophenyl)-1-methylethyl]-1-(2,4-difluorophenyl)-1H-imidazol-2-yl}thio)methyl]-N-[(pyrrolidin-1-ylamino)carbonyl]benzenesulfonamide], at h-TGR5, the EC50 is 1 to 10 µM.

With `COc1cc(-n2c(C(C)(C)c3ccc(F)cc3)cnc2SCc2ccc(S(=O)(=O)NC(=O)NN3CCCC3)cc2Cl)ccc1F` [3-chloro-4-[({1-[4-fluoro-3-(methyloxy)phenyl]-5-[1-(4-fluorophenyl)-1-methylethyl]-1H-imidazol-2-yl}thio)methyl]-N-[(pyrrolidin-1-ylamino)carbonyl]benzenesulfonamide], the EC50 on h-TGR5 fell in the range of 0.1 to 1 µM.

Regarding `COc1ccc(C(C)(C)c2cnc(SCc3c(F)cccc3C(=O)O)n2-c2ccc(F)cc2)cc1OC` [2-({[5-{1-[3,4-bis(methyloxy)phenyl]-1-methylethyl}-1-(4-fluorophenyl)-1H-imidazol-2-yl]thio}methyl)-3-fluorobenzoic acid], at human TGR5 (h-TGR5), the concentration giving a half-maximal response (EC50) was 0.1 to 1 µM.

For the molecule `CC(C)(c1ccc(Cl)c(Cl)c1)c1cnc(C(=O)CCc2ccc(Cl)cc2Cl)n1-c1ccc(F)cc1` [3-(2,4-dichlorophenyl)-1-{5-[1-(3,4-dichlorophenyl)-1-methylethyl]-1-(4-fluorophenyl)-1H-imidazol-2-yl}propan-1-one], the 50% effective concentration (EC50) on human TGR5 (h-TGR5) lay within 1 to 10 µM.

In the case of `CC(C)(c1ccc(Cl)c(Cl)c1)c1nc(CSc2ccc(F)cc2Cl)cn1-c1ccc(F)cc1` [4-{[(2-chloro-4-fluorophenyl)thio]methyl}-2-[1-(3,4-dichlorophenyl)-1-methylethyl]-1-(4-fluorophenyl)-1H-imidazole], on human TGR5 (h-TGR5), the concentration for a half-maximal effect (EC50) is 1 to 10 µM.

Regarding `CC(C)(c1ccc(Cl)c(Cl)c1)c1cnc(S(=O)(=O)Cc2ccc(F)cc2Cl)n1-c1ccc(F)cc1` [2-{[(2-chloro-4-fluorophenyl)methyl]sulfonyl}-5-[1-(3,4-dichlorophenyl)-1-methylethyl]-1-(4-fluorophenyl)-1H-imidazole], the EC50 at human TGR5 (h-TGR5) lay in the range of 1 to 10 µM.

For `CC(C)(c1ccc(Cl)c(Cl)c1)c1cnc(C2CCN(S(C)(=O)=O)CC2)n1-c1ccc(F)cc1` [4-{5-[1-(3,4-dichlorophenyl)-1-methylethyl]-1-(4-fluorophenyl)-1H-imidazol-2-yl}-1-(methylsulfonyl)piperidine], the EC50 on human TGR5 (h-TGR5) fell in the range of 1 to 10 µM.
